Consider one molecule from patent US8506946B2, “Compositions and methods for attracting noctuid moths” (Cotton Incorporated, priority 2006, dated 2013).

The subject of experiment [1] is Heliothis virescens. Nature of the experiment: Field trap capture of Heliothis virescens with pheromone mixture with or without synergist (Tedders traps). The experiment is classed as in vivo. As to the method: An experiment was carried out near Monticello, Drew County in Arkansas to study the response of tobacco bud worm, Heliothis virescens to a pheromone synergist. The experiment was carried out in a habitat of cotton and soybean. β-caryophyllene was used as a synergist with a mixture of pheromones (Z,E)-9,12-tetradecadien-1-ol acetate and (Z)-9-tetradecen-1-ol acetate at the ratio of 7:3. Tedders traps were used in the experiment. Each pheromone trap was baited with the pheromone mixture and approximately 3-6 mg of 3-caryophyllene and each control trap was baited with the pheromone mixture. The control trap contained no β-caryophyllene or other synergists. The pheromone mixture used in the experiment was LURETAPE® obtained from Hereon Environmental in Emigsville, Pa. The trapped adult insects of Heliothis virescens were collected on a daily basis and the total number of trapped insects was counted. Statistical analysis was done using the Least Squares means separation from the SAS GLM procedure.

In experiment [2] the test system is Spodoptera exigua. Nature of the experiment: Field trap capture of Spodoptera exigua with (Z)-11-hexadecen-1-ol with or without synergist (Tedders traps). The experiment is classed as in vivo. The note with it: approximately 3-6 mg β-caryophyllene added to (Z)-11-hexadecen-1-ol vs control trap with (Z)-11-hexadecen-1-ol only. Here is the method:
An experiment was carried out in three locations in Arkansas to study the response of beet army worm, Spodoptera exigua, in a cotton field to a pheromone synergist. The locations were near Fayetteville, Washington County, near Tillar, Drew County, and near Foreman, Little River County. β-caryophyllene was used as a synergist with (Z)-11-hexadecen-1-ol, a pheromone for Spodoptera exigua. Tedders traps were used in the experiment. Each pheromone trap was baited with (Z)-11-hexadecen-1-ol and approximately 3-6 mg of β-caryophyllene and each control trap was baited with (Z)-11-hexadecen-1-ol. The control trap contained no β-caryophyllene or other synergists. The trapped adult insects of Spodoptera exigua were collected on a daily basis and the total number of trapped insects was counted. Statistical analysis was done using the Least Squares means separation from the SAS GLM procedure.

As to `C=C1CC/C=C(\C)CC[C@@H]2[C@@H]1CC2(C)C` [β-caryophyllene], the “increase in the number of captured Heliothis virescens” value is on record as approximately 147% in experiment [1] (year 2004, approximately 3-6 mg β-caryophyllene added to pheromone mixture 7:3 (LURETAPE) vs control trap with pheromone mixture only, FIG. 2); approximately 131% in experiment [1] (year 2005, approximately 3-6 mg β-caryophyllene added to pheromone mixture (Z,E)-9,12-tetradecadien-1-ol acetate and (Z)-9-tetradecen-1-ol acetate 7:3 (LURETAPE) vs control trap with pheromone mixture only, cotton and soybean habitat, Arkansas, FIG. 1). In experiment [2] (year 2004, FIG. 4), the “change in the number of captured Spodoptera exigua” value is listed as approximately −9%. Also, the “increase in the number of captured Spodoptera exigua” value in experiment [2] (year 2005, cotton field, three locations in Arkansas, FIG. 3) is recorded as approximately 69%.
